# In patent US20140242093A1, “METHODS AND COMPOSITIONS FOR MODULATING THE INNATE IMMUNE RESPONSE AND/OR MYOGENESIS IN A MAMMALIAN SUBJECT” (FRED HUTCHINSON CANCER RESEARCH CENTER, priority 2011, published 2014):
# Tested on: human genome (hg18)
# Test: ChIP-Seq of DUX4 binding sites in transduced primary myoblasts
# Details: for max.cov (peak height): non-repeat binding site
# Method: Non-redundant reads unambiguously mapped to the human genome were computationally extended to a total length of 200 nucleotides and “peaks” were defined as regions where the number of reads was higher than a statistical threshold compared to the background, as described below. Reads mapping to the X and Y chromosomes were excluded from the analysis.
# ChIP was performed and ChIP DNA samples were prepared as previously described in Cao et al., Dev. Cell 18:662-674 (2010), hereby incorporated herein by reference. […] Anti-DUX4 N-terminus polyclonal antibodies FH106 and FH107 were combined to immunoprecipitate DUX4-s. The samples were sequenced with Illumina Genome Analyzer II.
# Sequences were extracted by Illumina package GApipeline and reads were aligned using BWA to the human genome (hg18). The inventors only kept one of the duplicated sequences to minimize the artifacts of PCR amplification. Each read was extended in the sequencing orientation to a total of 200 bases to infer the coverage at each genomic position. Peak calling was performed by a house developed R package “peakSig” (pending submission to Bioconductor), which model background reads by a negative binomial distribution. The negative binomial distribution can be viewed as a continuous mixture of Poisson distribution where the mixing distribution of the Poisson rate is modeled as a Gamma prior. This prior distribution is used to capture the variation of background reads density across the genome. Model parameters were estimated by fitting the truncated distribution on the number of bases with low coverage (one to three), to avoid the problem of inferring effective genome size excluding the non-mappable regions, and to eliminate contamination of any foreground signals in the high coverage regions. The inventors also fit a GC dependent mixture model so that the significance of the peaks is determined not only by peak height, but also by the GC content of the neighboring genomic regions.
# Discriminative motif discovery was carried out as described in Palii et al. (2011), in which motifs were identified that distinguish a positive and a negative sequence dataset, which in this study, the positive sequences correspond to Dux4 binding sites and negative sequences correspond to the randomly sampled flanking regions of Dux4 binding sites. To generate more accurate presentation of the Dux4 binding sites from the consensus pattern returned by this analysis, the inventors tried to learn a positional weight matrix (PWM) model, using the matches of the consensus pattern as the seed to initialize the iterative expectation-maximization (EM) refinement process similar to MEME. If appropriate, the motifs are extended iteratively as long as there is sequence preference in the flanking region, and refined in the same EM process.
# The inventors associated a peak to its closest TSS within the region flanked by CTCF binding sites, which were identified in a ChIP-seq experiment on human CD4+ T cells (GEO accession number GSE12889/GSM325895).
# [1] = repeat family DNA/TcMar-Mariner
# [2] = repeat family DNA/hAT-Blackjack
substance,measurement,setting,value
"DUX4-fl: full-length DUX4 protein (SEQ ID NO:110), expressed from lentiviral or pCS2 vectors or in vitro translated",enrichment of binding in the MaLR family of retrotransposons,,~10 fold
same,share of sequences under the peaks with a second larger (LTR) motif,,Approximately 30%
same,number of ChIP-Seq peaks,"P-value threshold 10^−10, background peaks subtracted","62,028 peaks"
same,number of ChIP-Seq peaks,"P-value threshold 10^−15, background peaks subtracted","39,737 peaks"
same,share of peaks with motif TAAYBBAATCA near the center,de novo motif analysis,greater than 90%
same,max.cov (peak height),"AVPI1, chr10, dist2tss 126",56
same,max.cov (peak height),"BZW2, chr7, dist2tss 1939",63
same,max.cov (peak height),"BZW2, chr7, dist2tss 1955",86
same,max.cov (peak height),"C1orf63, chr1, dist2tss −1326",132
same,max.cov (peak height),"C6orf191, chr6, dist2tss 61",250
same,max.cov (peak height),"C14orf102, chr14, dist2tss −558",159
same,max.cov (peak height),"C14orf138, chr14, dist2tss 326",53
same,max.cov (peak height),"C14orf138, chr14, dist2tss −4696",50
same,max.cov (peak height),"C21orf91, chr21, dist2tss −803",274
same,max.cov (peak height),"CBARA1, chr10, dist2tss 2340",70
same,max.cov (peak height),"CBARA1, chr10, dist2tss 4786",250
same,max.cov (peak height),"CCNA1, chr13, dist2tss 1874",58
same,max.cov (peak height),"CCNA1, chr13, dist2tss −2425",56
same,max.cov (peak height),"CCNJ, chr10, dist2tss −637",265
same,max.cov (peak height),"CLDN14, chr21, dist2tss −2523",96
same,max.cov (peak height),"CLK1, chr2, dist2tss 4634",163
same,max.cov (peak height),"CSE1L, chr20, dist2tss −1935",57
same,max.cov (peak height),"CSE1L, chr20, dist2tss −5914",53
same,max.cov (peak height),"CTNNAL1, chr9, dist2tss 641",198
same,max.cov (peak height),"CTR9, chr11, dist2tss 1913",46
same,max.cov (peak height),"DBR1, chr3, dist2tss 3981",117
same,max.cov (peak height),"DDX47, chr12, dist2tss −4416",55
same,max.cov (peak height),"DEFB103A, chr8, dist2tss −2289",55
same,max.cov (peak height),"DENND2C, chr1, dist2tss −3169",116
same,max.cov (peak height),"EGLN1, chr1, dist2tss −1",205
same,max.cov (peak height),"EXOSC10, chr1, dist2tss 150",139
same,max.cov (peak height),"FAM90A1, chr12, dist2tss −1597",129
same,max.cov (peak height),"FBXO33, chr14, dist2tss −2226",117
same,max.cov (peak height),"FRG2B, chr10, dist2tss 598",200
same,max.cov (peak height),"GPBAR1, chr2, dist2tss −224",150
same,max.cov (peak height),"GTF2F1, chr19, dist2tss 134",83
same,max.cov (peak height),"HOXB2, chr17, dist2tss −2471",283
same,max.cov (peak height),"JUP, chr17, dist2tss −701",177
same,max.cov (peak height),"KDM5B, chr1, dist2tss 301",93
same,max.cov (peak height),"KIF21A, chr12, dist2tss −1030",37
same,max.cov (peak height),"KIF21A, chr12, dist2tss −4249",73
same,max.cov (peak height),"MAPKAP1, chr9, dist2tss 3619",153
same,max.cov (peak height),"MAPKAP1, chr9, dist2tss −4397",69
same,max.cov (peak height),"MAST4, chr5, dist2tss −1253",269
same,max.cov (peak height),"MED13, chr17, dist2tss −2755",43
same,max.cov (peak height),"NANS, chr9, dist2tss 1843",85
same,max.cov (peak height),"NFYA, chr6, dist2tss 49",159
same,max.cov (peak height),"PABPN1, chr14, dist2tss −529",257
same,max.cov (peak height),"PANX2, chr22, dist2tss −2040",118
same,max.cov (peak height),"PELI1, chr2, dist2tss 4936",85
same,max.cov (peak height),"PNP, chr14, dist2tss −104",344
same,max.cov (peak height),"PPP2R2B, chr5, dist2tss 2498",91
same,max.cov (peak height),"PRAMEF12, chr1, dist2tss −1230",99
same,max.cov (peak height),"PRPF18, chr10, dist2tss 3230",57
same,max.cov (peak height),"PRR4, chr12, dist2tss 83",54
same,max.cov (peak height),"PTP4A1, chr6, dist2tss −2227",105
same,max.cov (peak height),"PVRL3, chr3, dist2tss 2678",51
same,max.cov (peak height),"RBBP6, chr16, dist2tss −1619",76
same,max.cov (peak height),"RBBP6, chr16, dist2tss −1922",323
same,max.cov (peak height),"RBBP6, chr16, dist2tss −4040",46
same,max.cov (peak height),"RFPL1, chr22, dist2tss −3042",124
same,max.cov (peak height),"RFPL2, chr22, dist2tss 3057",129
same,max.cov (peak height),"RFPL2, chr22, dist2tss −2853",118
same,max.cov (peak height),"RFPL4B, chr6, dist2tss −321",232
same,max.cov (peak height),"RTN4, chr2, dist2tss 1853",115
same,max.cov (peak height),"RTN4, chr2, dist2tss −2562",52
same,max.cov (peak height),"SAMD8, chr10, dist2tss 3338",43
same,max.cov (peak height),"SEC61A2, chr10, dist2tss −1861",172
same,max.cov (peak height),"SFRS2B, chr11, dist2tss 42",373
same,max.cov (peak height),"SH3GL2, chr9, dist2tss −4600",88
same,max.cov (peak height),"SIAH1, chr16, dist2tss −2337",118
same,max.cov (peak height),"SNAI1, chr20, dist2tss 769",62
same,max.cov (peak height),"SON, chr21, dist2tss −2951",244
same,max.cov (peak height),"SPRYD5, chr11, dist2tss −2855",133
same,max.cov (peak height),"SPTY2D1, chr11, dist2tss 5934",74
same,max.cov (peak height),"SPTY2D1, chr11, dist2tss −797",105
same,max.cov (peak height),"SRRT, chr7, dist2tss 1546",128
same,max.cov (peak height),"SYNJ1, chr21, dist2tss −766",229
same,max.cov (peak height),"TAF4B, chr18, dist2tss −1741",65
same,max.cov (peak height),"TFIP11, chr22, dist2tss −1353",234
same,max.cov (peak height),"TRIM43, chr2, dist2tss 1385",47
same,max.cov (peak height),"TRIM43, chr2, dist2tss −5584",85
same,max.cov (peak height),"TRIM48, chr11, dist2tss −151",178
same,max.cov (peak height),"TRIM49L1, chr11, dist2tss 200",85
same,max.cov (peak height),"TRIM49L2, chr11, dist2tss −202",109
same,max.cov (peak height),"USP29, chr19, dist2tss 2090",104
same,max.cov (peak height),"USP29, chr19, dist2tss 3676",66
same,max.cov (peak height),"ZNF217, chr20, dist2tss 3546",122
same,max.cov (peak height),"ZNF217, chr20, dist2tss −2168",55
same,max.cov (peak height),"ZNF296, chr19, dist2tss 182",110
same,max.cov (peak height),"ZNF705A, chr12, dist2tss −5106",224
same,max.cov (peak height),"ZSCAN4, chr19, dist2tss 1430",364
same,max.cov (peak height),"ZSCAN5B, chr19, dist2tss 4892",89
same,max.cov (peak height),"ZSCAN5B, chr19, dist2tss −4101",67
same,max.cov (peak height),"ZSCAN5B, chr19, dist2tss −5014",98
same,max.cov (peak height),"hCG_1651160, chr7, dist2tss −192",215
same,max.cov (peak height),"hCG_1651160, chr7, dist2tss −892",114
same,DUX4-fl Binding Prevalence (fraction of all DUX4-fl peaks),[1],0.00105
same,DUX4-fl Enrichment (binding prevalence/overall genome prevalence),[1],1.14
same,DUX4-fl Binding Prevalence (fraction of all DUX4-fl peaks),repeat family DNA/TcMar-Tigger,0.0124
same,DUX4-fl Enrichment (binding prevalence/overall genome prevalence),repeat family DNA/TcMar-Tigger,1.11
same,DUX4-fl Binding Prevalence (fraction of all DUX4-fl peaks),[2],0.00064
same,DUX4-fl Enrichment (binding prevalence/overall genome prevalence),[2],0.57
same,DUX4-fl Binding Prevalence (fraction of all DUX4-fl peaks),repeat family DNA/hAT-Charlie,0.00761
same,DUX4-fl Enrichment (binding prevalence/overall genome prevalence),repeat family DNA/hAT-Charlie,0.51
same,DUX4-fl Binding Prevalence (fraction of all DUX4-fl peaks),repeat family DNA/hAT-Tip100,0.00098
same,DUX4-fl Enrichment (binding prevalence/overall genome prevalence),repeat family DNA/hAT-Tip100,0.45
same,DUX4-fl Binding Prevalence (fraction of all DUX4-fl peaks),repeat family DNA/hAT?,0.00016
same,DUX4-fl Enrichment (binding prevalence/overall genome prevalence),repeat family DNA/hAT?,0.94
same,DUX4-fl Binding Prevalence (fraction of all DUX4-fl peaks),repeat family LINE/CR1,0.00356
same,DUX4-fl Enrichment (binding prevalence/overall genome prevalence),repeat family LINE/CR1,1.00
same,DUX4-fl Binding Prevalence (fraction of all DUX4-fl peaks),repeat family LINE/L1,0.0938
same,DUX4-fl Enrichment (binding prevalence/overall genome prevalence),repeat family LINE/L1,0.58
same,DUX4-fl Binding Prevalence (fraction of all DUX4-fl peaks),repeat family LINE/L2,0.02978
same,DUX4-fl Enrichment (binding prevalence/overall genome prevalence),repeat family LINE/L2,0.86
same,DUX4-fl Binding Prevalence (fraction of all DUX4-fl peaks),repeat family LTR/ERV,0.00032
same,DUX4-fl Enrichment (binding prevalence/overall genome prevalence),repeat family LTR/ERV,5.33
same,DUX4-fl Binding Prevalence (fraction of all DUX4-fl peaks),repeat family LTR/ERV1,0.01878
same,DUX4-fl Enrichment (binding prevalence/overall genome prevalence),repeat family LTR/ERV1,0.72
same,DUX4-fl Binding Prevalence (fraction of all DUX4-fl peaks),repeat family LTR/ERVK,0.00803
same,DUX4-fl Enrichment (binding prevalence/overall genome prevalence),repeat family LTR/ERVK,2.97
same,DUX4-fl Binding Prevalence (fraction of all DUX4-fl peaks),repeat family LTR/ERVL,0.04558
same,DUX4-fl Enrichment (binding prevalence/overall genome prevalence),repeat family LTR/ERVL,2.50
same,DUX4-fl Binding Prevalence (fraction of all DUX4-fl peaks),repeat family LTR/ERVL-MaLR,0.3572
same,DUX4-fl Enrichment (binding prevalence/overall genome prevalence),repeat family LTR/ERVL-MaLR,9.92
same,DUX4-fl Binding Prevalence (fraction of all DUX4-fl peaks),repeat family LTR/Gypsy,0.00081
same,DUX4-fl Enrichment (binding prevalence/overall genome prevalence),repeat family LTR/Gypsy,1.07
same,DUX4-fl Binding Prevalence (fraction of all DUX4-fl peaks),repeat family SINE/Alu,0.00777
same,DUX4-fl Enrichment (binding prevalence/overall genome prevalence),repeat family SINE/Alu,0.08
same,DUX4-fl Binding Prevalence (fraction of all DUX4-fl peaks),repeat family SINE/MIR,0.02317
same,DUX4-fl Enrichment (binding prevalence/overall genome prevalence),repeat family SINE/MIR,0.82
same,DUX4-fl Binding Prevalence (fraction of all DUX4-fl peaks),repeat family SINE/tRNA,0.00011
same,DUX4-fl Enrichment (binding prevalence/overall genome prevalence),repeat family SINE/tRNA,1.57
same,DUX4-fl Binding Prevalence (fraction of all DUX4-fl peaks),repeat family Satellite,0.00068
same,DUX4-fl Enrichment (binding prevalence/overall genome prevalence),repeat family Satellite,0.66
same,DUX4-fl Binding Prevalence (fraction of all DUX4-fl peaks),repeat family Satellite/centr,0.00047
same,DUX4-fl Enrichment (binding prevalence/overall genome prevalence),repeat family Satellite/centr,0.19
same,DUX4-fl Binding Prevalence (fraction of all DUX4-fl peaks),repeat family Simple_repeat,0.00442
same,DUX4-fl Enrichment (binding prevalence/overall genome prevalence),repeat family Simple_repeat,0.53
same,DUX4-fl Binding Prevalence (fraction of all DUX4-fl peaks),repeat family Unknown,0.00063
same,DUX4-fl Enrichment (binding prevalence/overall genome prevalence),repeat family Unknown,1.47
same,DUX4-fl Binding Prevalence (fraction of all DUX4-fl peaks),repeat family rRNA,1.00E−04
same,DUX4-fl Enrichment (binding prevalence/overall genome prevalence),repeat family rRNA,1.67
